Experimental data as given in patent US11583533B2, “Topical pharmaceutical compositions comprising 2-[3-[4-amino-3-(2-fluoro-4-phenoxy-phenyl)-1H-pyrazolo[3,4-d]pyrimidin-1-yl]piperidine-1-carbonyl]-4,4-dimethylpent-2-enenitrile” (Principia Biopharma Inc., priority 2020, dated 2023).

Assay: Skin penetration of Compound (I) into the dermis and epidermis
Type: in vitro ADME
Conditions: human abdominal skin from elective surgery (500±50 μm)
Experimental: Using skin from one donor (n=4-5 replicates per condition) and a receptor solution comprising phosphate/citrate buffer pH 5.6 with 0.01% Brij 98, a dose of 10 mg/cm^2 Compound (I) was applied in the form of one of three 2% Compound (I) gel formulations comprising one of crystalline Form (I), amorphous Compound (I), or crystalline Form (II). Samples were collected every 3 hours for 24 hours. Prior to separating the epidermis and dermis, the residual formulation was removed from the surface of the skin, and then the skin surface was tape stripped up to 5 times to remove residual formulation and the top of the skin surface layers (stratum corneum). The dermis and epidermis were separated by heating to 60° C. for 2 minutes, followed by manual separation using forceps. The extraction fluid used was 90:10 acetonitrile:water with 0.1% BHT. Epidermis and dermis samples were homogenized, then shaken at 130 RPM overnight, and transferred to lo-bind DW96 plates.

ability to penetrate skin into the dermis and epidermis: able to penetrate
SMILES: CC(C)(C)C=C(C#N)C(=O)N1CCCC(n2nc(-c3ccc(Oc4ccccc4)cc3F)c3c(N)ncnc32)C1 (stereo not shown) [Compound (I), 2-(3-(4-amino-3-(2-fluoro-4-phenoxyphenyl)-1H-pyrazolo[3,4-d]pyrimidin-1-yl)piperidine-1-carbonyl)-4,4-dimethylpent-2-enenitrile]
